Data taken from PubChem BioAssay AID248 (DTP/NCI, 2004).
“And” between values parts separate entries of the source, which are not always exact repeats. Identical values can stand only once. Toxic doses and inconclusive results are not listed. Cut-off read from the data, not from the text of the source: active = T/C of 150% or more; inactive = T/C below 125%.

Test system: L1210 leukemia ip in BDF1 mice, survival T/C
Assay: NCI In Vivo Anticancer Drug Screen. Data for tumor model L1210 Leukemia (intraperitoneal) in B6D2F1 (BDF1) mice
Details: endpoint: mean survival time, higher = longer survival
Outline: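 Value reflects the ratio of survival in compound-treated mice to survival in vehicle-treated controls, with both groups carrying the same transplanted tumor.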

[1] = dose: 100.0 mg/kg/injection, schedule: Q04DX003 (ip), vehicle: Klucel (hydroxypropylcellulose) (HPC)
[2] = dose: 200.0 mg/kg/injection, schedule: Q04DX003 (ip), vehicle: Klucel (hydroxypropylcellulose) (HPC)
[3] = dose: 400.0 mg/kg/injection, schedule: Q04DX003 (ip), vehicle: Klucel (hydroxypropylcellulose) (HPC)
[4] = dose: 100.0 mg/kg/injection, schedule: Q01DX009 (ip), vehicle: saline with Tween-80
[5] = dose: 200.0 mg/kg/injection, schedule: Q01DX009 (ip), vehicle: saline with Tween-80
[6] = dose: 100.0 mg/kg/injection, schedule: Q01DX009 (ip), vehicle: Klucel (hydroxypropylcellulose) (HPC)
[7] = dose: 200.0 mg/kg/injection, schedule: Q01DX009 (ip), vehicle: Klucel (hydroxypropylcellulose) (HPC)
[8] = dose: 400.0 mg/kg/injection, schedule: Q01DX009 (ip), vehicle: Klucel (hydroxypropylcellulose) (HPC)
[9] = dose: 10.0 mg/kg/injection, schedule: Q01DX001 (ip), vehicle: saline

Measured: T/C

O=C(NCC(O)CCl)c1ccc([N+](=O)[O-])cc1 (stereo not given)
inactive: dose: 100.0 mg/kg/injection, schedule: Q01DX001 (ip), vehicle: Klucel (hydroxypropylcellulose) (HPC) 95 % of control | [1] 97 % of control | dose: 200.0 mg/kg/injection, schedule: Q01DX001 (ip), vehicle: Klucel (hydroxypropylcellulose) (HPC) 103 % of control | [2] 105 % of control | dose: 400.0 mg/kg/injection, schedule: Q01DX001 (ip), vehicle: Klucel (hydroxypropylcellulose) (HPC) 95 % of control | [3] 92 % of control

CCOC(=O)c1ccc(Nc2nnc(-c3ccccc3Cl)s2)cc1
inactive: dose: 25.0 mg/kg/injection, schedule: Q04DX002 (ip), vehicle: gum acacia 98 % of control | dose: 100.0 mg/kg/injection, schedule: Q04DX002 (ip), vehicle: gum acacia 88 % of control | dose: 200.0 mg/kg/injection, schedule: Q04DX002 (ip), vehicle: gum acacia 102 % of control | dose: 400.0 mg/kg/injection, schedule: Q04DX002 (ip), vehicle: gum acacia 94 % of control

FC(F)(F)c1nc2cccc3c2n1CCC3
inactive: dose: 50.0 mg/kg/injection, schedule: Q01DX009 (ip), vehicle: saline with Tween-80 93 % of control | [4] 87 % of control | dose: 100.0 mg/kg/injection, schedule: Q04DX003 (ip), vehicle: saline with Tween-80 97 % of control | [5] 101 % of control | dose: 200.0 mg/kg/injection, schedule: Q04DX003 (ip), vehicle: saline with Tween-80 96 % of control

CC(C)(C)P(=O)(O)O
inactive: [4] 95 % of control

Cc1ccc(Cl)cc1NC(=O)Oc1ccccc1C(=O)OCc1ccccc1
inactive: [4] 97 % of control | [5] 100 % of control | dose: 400.0 mg/kg/injection, schedule: Q01DX009 (ip), vehicle: saline with Tween-80 94 % of control

CCOC(=O)c1ccc(N=NNc2ccc(C(=O)OCC)cc2)cc1
inactive: dose: 10.0 mg/kg/injection, schedule: Q01DX Z (ip), vehicle: other 95 % of control | dose: 30.0 mg/kg/injection, schedule: Q01DX Z (ip), vehicle: other 87 % of control

CCc1c([N+](=O)[O-])oc2ccc(Cl)cc12
inactive: [6] 103 % of control | [7] 105 % of control | [8] 107 % of control

CC(=O)[O][Hg][c]1c(N)c(C)cc(C)c1F
inactive: dose: 2.5 mg/kg/injection, schedule: Q01DX009 (ip), vehicle: saline 91 % of control | dose: 5.0 mg/kg/injection, schedule: Q01DX009 (ip), vehicle: saline 95 % of control | dose: 6.25 mg/kg/injection, schedule: Q04DX003 (ip), vehicle: saline 101 % of control | dose: 10.0 mg/kg/injection, schedule: Q01DX009 (ip), vehicle: saline 98 % of control | dose: 12.5 mg/kg/injection, schedule: Q04DX003 (ip), vehicle: saline 91 % of control | dose: 25.0 mg/kg/injection, schedule: Q04DX003 (ip), vehicle: saline 94 % of control and 100 % of control | dose: 100.0 mg/kg/injection, schedule: Q04DX003 (ip), vehicle: saline 95 % of control

CC(=O)OCCc1ccc(Cl)cc1
inactive: dose: 100.0 mg/kg/injection, schedule: Q04DX002 (ip), vehicle: saline with Tween-80 93 % of control | dose: 200.0 mg/kg/injection, schedule: Q04DX002 (ip), vehicle: saline with Tween-80 96 % of control | dose: 400.0 mg/kg/injection, schedule: Q04DX002 (ip), vehicle: saline with Tween-80 100 % of control

COc1ccc(C=Nc2ccc(OC(C)=O)cc2)cc1
inactive: dose: 176.0 mg/kg/injection, schedule: Q01DX009 (ip), vehicle: other 105 % of control | dose: 264.0 mg/kg/injection, schedule: Q01DX009 (ip), vehicle: other 120 % of control

O=C(NCCBr)Nc1ccc2c(c1)CCCC2
inactive: [1] 102 % of control | [2] 93 % of control | [3] 93 % of control

O=C(c1ccccc1)c1c2ccccc2c(Br)c2ccccc12
inactive: [6] 97 % of control | [1] 100 % of control | [7] 96 % of control | [2] 95 % of control | [8] 91 % of control | [3] 89 % of control

O=C(Cl)C(c1ccccc1)C1(C(Cl)(Cl)Cl)CCCCC1 (stereo not given)
inactive: dose: 55.0 mg/kg/injection, schedule: Q01DX Z (ip), vehicle: methylcellulose (MC) 110 % of control | dose: 83.0 mg/kg/injection, schedule: Q01DX Z (ip), vehicle: methylcellulose (MC) 104 % of control | dose: 125.0 mg/kg/injection, schedule: Q01DX Z (ip), vehicle: methylcellulose (MC) 98 % of control

c1ccc(C2C(c3ccccc3)N2CCNC2=NCCN2)cc1 (stereo not given)
inactive: dose: 12.5 mg/kg/injection, schedule: Q01DX009 (ip), vehicle: Klucel (hydroxypropylcellulose) (HPC) 91 % of control | dose: 25.0 mg/kg/injection, schedule: Q01DX009 (ip), vehicle: Klucel (hydroxypropylcellulose) (HPC) 102 % of control | dose: 50.0 mg/kg/injection, schedule: Q01DX009 (ip), vehicle: Klucel (hydroxypropylcellulose) (HPC) 91 % of control

O=C(O)C12CCC(CC1Br)C2 (stereo not given)
inactive: dose: 75.0 mg/kg/injection, schedule: Q01DX001 (ip), vehicle: acetone 105 % of control | dose: 100.0 mg/kg/injection, schedule: Q01DX009 (ip), vehicle: saline 102 % of control | dose: 150.0 mg/kg/injection, schedule: Q01DX001 (ip), vehicle: acetone 106 % of control | dose: 200.0 mg/kg/injection, schedule: Q01DX009 (ip), vehicle: saline 110 % of control | dose: 300.0 mg/kg/injection, schedule: Q01DX001 (ip), vehicle: acetone 102 % of control | dose: 400.0 mg/kg/injection, schedule: Q01DX009 (ip), vehicle: saline 102 % of control

CC1C2CC3C(OC(=O)C13C)C2I (stereo not given)
inactive: dose: 100.0 mg/kg/injection, schedule: Q01DX001 (ip), vehicle: saline 110 % of control | dose: 200.0 mg/kg/injection, schedule: Q01DX001 (ip), vehicle: saline 96 % of control | dose: 400.0 mg/kg/injection, schedule: Q01DX001 (ip), vehicle: saline 113 % of control

N#CCCNC=O
inactive: dose: 100.0 mg/kg/injection, schedule: Q04DX002 (ip), vehicle: saline 109 % of control | dose: 200.0 mg/kg/injection, schedule: Q04DX002 (ip), vehicle: saline 98 % of control | dose: 400.0 mg/kg/injection, schedule: Q04DX002 (ip), vehicle: saline 109 % of control

CC(=O)Nc1nnc(Sc2n[nH]c(=O)[nH]c2=O)s1
inactive: [9] 98 % of control

COC(=O)c1cccc(C)c1C(=O)c1ccccc1
inactive: [6] 104 % of control | [1] 101 % of control | [7] 96 % of control | [2] 101 % of control | [8] 98 % of control | [3] 95 % of control

O=C(c1ccc(C(=O)N(c2ccccc2)C2CCCCC2)cc1)N(c1ccccc1)C1CCCCC1
inactive: [6] 96 % of control | [7] 100 % of control | [8] 86 % of control

Cc1ccc2c(c1)N(CCCN1CC[N+](C)(C)CC1)c1ccccc1S2
inactive: [9] 101 % of control | dose: 20.0 mg/kg/injection, schedule: Q01DX001 (ip), vehicle: saline 95 % of control | dose: 40.0 mg/kg/injection, schedule: Q01DX001 (ip), vehicle: saline 98 % of control | dose: 80.0 mg/kg/injection, schedule: Q01DX001 (ip), vehicle: saline 98 % of control

Cc1ccc(NC(=O)Oc2ccc(OC(=O)Cc3ccccc3)cc2)cc1NC(=O)Oc1ccc(OC(=O)Cc2ccccc2)cc1
inactive: dose: 100.0 mg/kg/injection, schedule: Q01DX009 (ip), vehicle: other 96 % of control | dose: 200.0 mg/kg/injection, schedule: Q01DX009 (ip), vehicle: other 98 % of control | dose: 400.0 mg/kg/injection, schedule: Q01DX009 (ip), vehicle: other 93 % of control
